Laboratory results: patent US10106505B2, “Composition and methods for modulating a kinase cascade” (Athenex, Inc., priority 2012, dated 2018)
Entries after “also recorded” stand apart in the source; their conditions may differ. Like-named read-outs stand apart in the source and are kept apart here.

Key:
aggressive brain tumors = assay: Mice with aggressive brain tumors (mouse model of malignant glioma); format: in vivo
Protocol: (§1) Compound 1 is a synthetic, orally bioavailable, novel small molecule microtubule polymerization inhibitor with very high CNS penetration. The efficacy of compound 1 as a novel anti-cancer agent is tested directly using mouse model of malignant glioma. Compound 1 is an orally administered tubulin polymerization inhibitor that binds to a novel site on heterodimeric tubulin, and to a novel conformation of the dimer. Compound 1 can inhibit Src signaling in tumors. Compound 1 has been evaluated in various brain tumor cell lines. […] When administered orally to mice at a dose of 10 mg/kg, the ratio of drug levels in the brain compared to plasma levels was 0.76, indicating excellent blood brain barrier penetration.
(§2) Compound 1 was evaluated in various human and mouse brain tumor cells derived from glioblastoma multiforme, astrocytoma and medulloblastoma. See, e.g., US2011/0281872. […] When administered to mice compound 1 penetrated the brain by 76%, thereby successfully addressing the first major challenge in brain cancer drug discovery. Drugs which are used to treat brain tumors often penetrate only 20% or less.

GL261 glioma = assay: Orthotropic GL261 glioma model in immune-competent, syngeneic C57BL/6 mice; format: in vivo
Protocol: (§3) Compound 1 was also evaluated in the orthotropic GL261 glioma model in immune-competent, syngeneic C57BL/6 mice. Mice implanted intracerebrally with 1×1^05 GL261 cells treated with vehicle alone (saline) have a median survival time (MeST) of 21 days (range 18-28). Mice treated by oral compound 1 (30 mg/kg, b.i.d.) have a MeST of 30.5 days ranging 23-32 days. In contrast, when compound 1 is given orally at (30 mg/kg, s.i.d.) the MeST increases to over 120 days, with more than 60% of the treatment group still alive 12 months later (p<0.0001). […] Further experiments were performed using a SCID version of C57BL/6 mice (B6.CB17-Prkd^cscid/SzJ), a mouse model of B6 background, but is immune-compromised.
When given as a single dose per day (s.i.d.) compound 1 led to complete tumor regression in up to 60% of treated mice without further progression. […] This magnitude of anti-tumor effect was not observed in SCID models leading to the possibility that compound 1 may be involved in an anti-tumor immune response.
When given single dose per day (s.i.d.) compound 1 led to complete tumor regression in up to 60% of treated mice without further progression.

[1] = test system: various brain tumor cell lines (glioblastoma multiforme, astrocytoma, medulloblastoma); assay: Proliferation of brain tumor cell lines; format: cell-based, human and mouse
Protocol: as §1, §2

[2] = test system: GL261 intracerebral tumors; assay: GL261 intracerebral tumors in immune-compromised SCID C57BL/6 mice; format: in vivo, SCID version of C57BL/6 mice (B6.CB17-Prkd^cscid/SzJ)
Protocol: as §3

[3] = test system: human colon cancer cells (HT29); assay: Src substrate phosphorylation in HT29 cells; format: cell-based; settings: in good correlation with growth inhibitory effects
Text: (§4) Compounds of the invention may be Src signaling inhibitors that bind in the Src peptide substrate site. The activity of various compounds of the invention has been studied in c-Src (527F, constitutively active and transforming) transformed NIH3T3 cells and in human colon cancer cells (HT29).

survivin = assay: Additional molecular studies on survivin
[4] = Brain penetration after oral administration to mice; format: in vivo; settings: mouse, 10 mg/kg
Protocol: as §1, §2

[5] = test system: c-Src (527F, constitutively active and transforming) transformed NIH3T3 cells; assay: Src substrate phosphorylation in c-Src transformed NIH3T3 cells; format: cell-based; settings: c-Src (527F) transformed NIH3T3 cells; in good correlation with growth inhibitory effects
Text: as §4

[6] = mice with aggressive brain tumors
[7] = oral 30 mg/kg, b.i.d., C57BL/6, intracerebral GL261
[8] = immune-compromised SCID mice bearing GL261 intracerebral tumors

For `Cn1nnc2c(C(N)=O)ncn2c1=O` [Temodar, Temozolamide, reference compound], the “rate of tumor growth” value (aggressive brain tumors; [6]) was “only slows the growth rate of the tumors” and the complete tumor regression (aggressive brain tumors; mice with aggressive brain tumors, comparison drug) was “does not cause complete tumor regression”.
For `O=C(Cc1ccc(-c2ccc(N3CCOCC3)cc2)cn1)NCc1cccc(F)c1` [compound 1, N-(3-fluorobenzyl)-2-(5-(4-morpholinophenyl)pyridin-2-yl)acetamide], the “second GL261 tumor implant challenge” value (GL261 glioma; "cured" / long term survivor immune-competent C57BL/6 mice) was “rejected a second GL261 tumor implant challenge; also recorded: rejection of a second tumor”, the “median survival time (MeST)” value (GL261 glioma; [7]) was 30.5 days and the survival time range (GL261 glioma; [7]) was 23 to 32 days. The “median survival time (MeST)” value (GL261 glioma; oral 30 mg/kg, s.i.d., C57BL/6, intracerebral GL261) was “over 120 days”, the “treatment group still alive 12 months later” value (GL261 glioma; oral 30 mg/kg, s.i.d., p<0.0001) was “more than 60%” and the “growth rate of intracerebral GL261 glioma” value (GL261 glioma; relative to control groups, five independent studies) was “slows the growth rate”. For the same compound, the “treated mice with complete tumor regression without further progression” value (GL261 glioma; single dose per day (s.i.d.)) was “up to 60%”, the “growth of brain tumor cells” value ([1]; human and mouse brain tumor cells derived from glioblastoma multiforme, astrocytoma and medulloblastoma) was “potently inhibited the growth” and the GI50 ([1]; various brain tumor cell lines, in all cases, read-out: GI50 (inhibition of proliferation)) was under 55 nM. The “tumor outcome after drug was discontinued (observed by MRI)” value ([2]; SCID mice surviving greater than 45 days) was “all proceeded to develop lethal GL261 gliomas”, the “median survival time (MeST)” value [2, 8] was 40 days and the survival time range [2, 8] was 29 to 75 days. For the same compound, the “phosphorylation level of known Src protein substrates” value [3] was “reduce the phosphorylation level of known Src protein substrates in a dose-dependent fashion”, the “drug treated mice with complete tumor regression and no reoccurrence within normal full life span” value (aggressive brain tumors; [6]) was “up to 60%” and the “rate of tumor growth” value (aggressive brain tumors; [6]) was “very significantly slows the rate of tumor growth”. For the same compound, the brain edema (aggressive brain tumors; versus placebo or Temodar treated mice) was “much less brain edema”, the “expression and localization of intracellular survivin” value (survivin) was “increased expression and altered the localization of intracellular survivin” and the Kp ([4]; brain (relative to plasma), mice, read-out: ratio of drug levels in the brain compared to plasma levels) was 0.76. For the same compound, the Kp ([4]; brain, administered to mice, read-out: brain penetration) was 0.76 and the “phosphorylation level of known Src protein substrates” value [5] was “reduce the phosphorylation level of known Src protein substrates in a dose-dependent fashion”.
